Tests used:
RENCA tumor model = test: CXCL10 and CD8a levels in RENCA tumor bearing mice; format: in vivo, Balb/c mice; conditions: 2.5 mg/kg BID peritumorally for 7d
Protocol: Several mechanism of action related endpoints were also measured in vivo. Balb/c mice were implanted with RENCA cells and treated with candidate lead peptides and control compounds. Dosing occurred during the 1st week only: SG-3-00802 was dosed peritumorally at 2.5 mg/kg BID for 7d, anti-PD-1 was dosed i.p. at 10 mg/kg TIW for a total of 3 doses.

RENCA cells = test: RENCA re-challenge study; format: in vivo, Balb/c mice
Protocol: Additional studies were performed to test survival and tumor volume responses to a re-challenge event. In one study, mice were allocated into dosing groups when tumors reached ˜100 mm^3. During the initial dosing study, time 0 was the first day of seven days of dosing. […] Re-implantation was completed on day 39 after dosing completion. Treated mice were tumor free for >20 days before being re-challenge. […] Tumor volume and survival was monitored as previously described. In the re-challenge experiment, time 0 is day 10 after re-challenge dosing.

CXCR3 = target: T1, CXCR3 (Homo sapiens, UniProt P49682); test: Positive allosteric modulator assay method 2 (PAM2), CXCR3-bla U2OS; format: cell-based; set-up: TEV protease site; Gal4-VP16 transcription factor ('Ga14-VP16' [sic]); Tango cell line; host or cells: Tango GPCR-bla U2OS; conditions: varying CXCL11, fixed peptide concentration
T1 sequence (P49682 1-368): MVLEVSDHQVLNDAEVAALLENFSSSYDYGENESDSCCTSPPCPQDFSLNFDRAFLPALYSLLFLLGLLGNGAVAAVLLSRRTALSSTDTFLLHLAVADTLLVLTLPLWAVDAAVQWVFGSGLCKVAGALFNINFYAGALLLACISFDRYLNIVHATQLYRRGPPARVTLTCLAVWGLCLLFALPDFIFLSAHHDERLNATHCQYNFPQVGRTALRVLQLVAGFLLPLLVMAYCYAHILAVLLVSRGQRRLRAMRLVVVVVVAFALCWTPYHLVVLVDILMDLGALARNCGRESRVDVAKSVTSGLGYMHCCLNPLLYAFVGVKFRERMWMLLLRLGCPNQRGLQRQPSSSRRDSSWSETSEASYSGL
Excerpt: (§1) Tango™ CXCR3-bla U2OS cells contain the human chemokine (C-X-C motif) receptor 3 linked to a TEV protease site and a Ga14-VP16 transcription factor stably integrated into the Tango™ GPCR-bla U2OS cell line. This parental cell line stably expresses a beta-arrestin/TEV protease fusion protein and the beta-lactamase reporter gene under the control of a UAS response element. The Tango™ CXCR3-bla U2OS cells have been functionally validated for a response to I-TAC (CXCL11).
Positive allosteric modulation was confirmed with an additional test method using a dose response setting for CXCL11. In positive allosteric modulator assay method 2 (PAM2), cells were diluted in Assay Media to an appropriate cell density, and were added to the assay plate. CXCR3-bla U2OS were stimulated with varying concentrations of CXCL11 ligand and a pre-determined fixed concentration of either SG-3-00802 or SG-3-06683 and incubated for 30 minutes. Ligand (CXCL9, CXCL10, or CXCL11) was added at increasing concentrations to wells containing the test compound.

[1] = target: T2, human chemokine (C-X-C motif) receptor 3 (Homo sapiens, UniProt P49682); test: Positive allosteric modulator assay method 1 (PAM1), Tango CXCR3-bla U2OS; format: cell-based
T2 construct: TEV protease site; Gal4-VP16 transcription factor ('Ga14-VP16' [sic]); Tango cell line; host or cells: Tango GPCR-bla U2OS
T2 sequence (P49682 1-368): T1 sequence (P49682 1-368)
Excerpt: To assay positive allosteric modulator activity of SG-3-00802 (SEQ ID NO: 1) and SG-3-006683 in CXCR3 cell lines, the cell line Tango™ CXCR3-bla U2OS was used in a positive allosteric modulator assay with two different methods, as described below.
as §1
In positive allosteric modulator assay method 1 (PAM1), cells were diluted in Assay Media to an appropriate cell density and were added to the assay plate. Peptides were added at increasing concentrations (1 nM-20 mcM) to the cells in the assay plate and incubated for 30 minutes. Ligand (CXCL9, CXCL10, or CXCL11) was added at an EC20 to all wells containing test compound. The assay plate was incubated for 16 hours at 37° C. Substrate Loading Solution was added to the assay plate and incubated for 2 hours at room temperature, in the dark. The assay plate was read on a fluorescence plate reader and the data was analyzed. PAM activity was calculated as follows:
% of PAM=((Test compound−Unstimulated)/(Stimulated−Unstimulated))×100.

[2] = system: Unstimulated human T cells; test: Transwell T cell migration towards CXCR3 ligands; format: cell-based
Protocol: T cell migration towards CXCR3 ligands in the presence of SG-3-00802 and SG-3-06683 was tested using a Transwell migration assay. Suboptimal concentrations of each ligand (CXCR3 ligands CXCL9, CXCL10, and CXCL11) were added to the bottom of the transwell with increasing doses of SG-3-00802 or SG-3-006683. An optimal concentration of ligand was used as positive control, as indicated in the graphs.
Unstimulated human T cells were resuspended in AIM V serum-free media, then were added to the top chamber of a […] polycarbonate Transwell insert and incubated with the indicated concentrations of the ligands and peptides in the bottom chamber for 2.5 hours at 37° C. T cells that migrated to the bottom chamber were collected, stained with anti-CD3 antibody, and counted using Beckman Coulter Cytoflex flow cytometer. 123count eBeads counting beads were added to each of the wells for obtaining the absolute cell counts.

[3] = system: moDCs and allogeneic T cells; test: Mixed lymphocyte reaction (MLR) cytokine release; format: cell-based
Protocol: Twenty-four hours later, T cells isolated from allogeneic donors were added to the moDCs with the peptide of interest, SG-3-00802 or SG-3-05021, alone or in combination with anti-PD-L1 monoclonal antibody. The co-culture of cells was incubated for 72 hours, after which cell supernatants were harvested and analyzed for secretion of cytokines, IFN-g and TNF-α. […] Data shown for experiment conducted in >4 Donor PBMCs.

Row | Sequence | CD8a expression in the tumor (RENCA tumor model) | expression of CXCL10 in the tumor (RENCA tumor model) | serum levels of CXCL10 (RENCA tumor model) | rejection of newly implanted tumors (RENCA cells; peptide alone) | percent of mice surviving after re-challenge (RENCA cells; previously dosed in combination with anti-PD-1) | percent of mice surviving after re-challenge (RENCA cells; previously dosed with peptide alone) | # of animals without tumor progression out of re-challenged animals per group (re-challenge study) (RENCA cells; re-challenge study) | rejection of newly implanted tumors (RENCA cells; with anti-PD-1 antibody combinatorial treatment) | activity of CXCL11 on the CXCR3 receptor (PAM2) (CXCR3) | activity of CXCR3 in presence of ligand (PAM1) ([1]; CXCL9 at EC20) | activity of CXCR3 in presence of ligand (PAM1) ([1]; CXCL10 at EC20) | activity of CXCR3 in presence of ligand (PAM1) ([1]; CXCL11 at EC20) | T cell migration to suboptimal level of ligand ([2]; CXCL9, 2.5 hours) | T cell migration to suboptimal level of ligand ([2]; CXCL10, 2.5 hours) | T cell migration to suboptimal level of ligand ([2]; CXCL11, 2.5 hours) | IFN-γ secretion ([3]; after stimulation with anti-CD40, in combination with anti-PD-L1, 72 hours) | IFN-γ secretion ([3]; after stimulation with anti-CD40, peptide alone, 72 hours)
1 | MKVRPSVKPMCEKCKIIRRKGRVMVICENPKHKQRQG [SG-3-00802] | increase in CD8a expression | increased expression of CXCL10 in the tumor | increased serum levels of CXCL10 | rejected newly implanted tumors | increased percent of mice surviving | increased percent of mice surviving | 2/2 | rejected newly implanted tumors | enhanced the activity of the endogenous ligand CXCL11 | enhanced activity of CXCR3 | enhanced activity of CXCR3 | enhanced activity of CXCR3 | increased migration | increased migration | increased migration |  | 
2 | LGKTDWIEKYFKVKKEKIDKMQRFLQG (peptide for immunotherapy; SG-3-05021) |  |  |  |  |  |  |  |  |  |  |  |  |  |  |  | increase in IFN-γ | increase in IFN-γ

Reference: US20240317816A1, “PEPTIDES FOR IMMUNOTHERAPY” (Genevive, Inc., priority 2021, published 2024)
